This passage reports LD50 and Survival ratio results from US5023079A, “Heptaene V-28-3 antibiotic derivative” (Ajinomoto Co., Inc., priority 1987, dated 1991).

The nature of series [1]: Acute toxicity (LD50, IV). As to conditions: mouse, in vivo, male ICR-strain mice, survivors at day-5, read-out: LD50 (50% lethal dose). On the procedure:
An acute toxicity study was carried out with male ICR-strain mice. LD50 (50% lethal dose) was calculated on the basis of the number of survivors at day-5 after IV administration of the drugs.

Series [2] has as its system Candida albicans (strain C3). Kind of series: Experimental (mouse) candidiasis, survival ratio. The format is in vivo, Candida albicans (strain C3) in male ICR-strain mice. The settings on record: 1 hr after infection, day-8, groups of 10 mice. On the procedure:
Male ICR-strain mice, weighing 20-22 g, were used in groups of 10. A 0.2 ml cell suspension of Candida albicans (strain C3) was injected IV via the tail vein, inoculum size being 2.5×10^7 cells/mouse. The test drugs (0.2 ml) were administered IV via the tail vein once at 1 hr after the infection.
The therapeutic effect of the test drugs was expressed as the survival ratio at day-8 after infection.

As usually defined, the LD50 is the dose at which mortality reaches 50%.

Consider `C[C@@H]1[C@H](O)[C@@H](C)/C=C/C=C/C=C/C=C/C=C/C=C/C=C/[C@H](O[C@@H]2O[C@H](C)[C@@H](O)[C@H](N)[C@@H]2O)C[C@@H]2O[C@](O)(C[C@@H](O)C[C@@H](O)[C@H](O)CC[C@@H](O)C[C@@H](O)CC(=O)O[C@H]1C)C[C@H](O)[C@H]2C(=O)O` [amphotericin B], for which the LD50 at 120 h in series [1] worked out at 4.1 mg/kg. Further, the Survival ratio in series [2] (0.125 mg/kg IV once) worked out at 0%; in series [2] (0.25 mg/kg IV once), 70%; in series [2] (0.5 mg/kg IV once), 100%.
